According to the NIST ThermoML archive (doi:10.1016/j.tca.2006.12.010):

Key:
[1] = Molar enthalpy of transition or fusion; details: Crystal; Resistive pulse heating
[2] = 101.33 kPa, Resistive pulse heating

[V] [vanadium]
Details	Molar enthalpy of transition or fusion [kJ/mol]
[1]	20.7

thermal conductivity [W/m/K], [2]
Details	Crystal	Liquid
2199 K	41.35	39.08
2250 K	–	39.8
2300 K	–	40.49
2350 K	–	41.17
2400 K	–	41.82
2450 K	–	42.46
2500 K	–	43.08
2550 K	–	43.68
2600 K	–	44.26
2650 K	–	44.83
2700 K	–	45.37
2750 K	–	45.91
2800 K	–	46.42
2850 K	–	46.91
2900 K	–	47.39
